Data published in patent US20100041892A1, “Therapeutic agent for diabetes” (priority 2005, published 2010).
Read-outs that look alike come from different tables or passages of the source.

Assays:
KKAy mice = assay: Blood glucose and blood lipid (triglyceride) lowering action in mice; format: in vivo; conditions: Mus musculus, 4TO7, po, 0.01% in powder diet, 4 to 7 days
Procedure, shortened: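 KKAy mice (9 to 14-week-old, 5 per group) fed compound in powder diet at 0.01% (some at 0.03% or 0.005%) ad libitum for 4 to 7 days. Orbital plexus blood drawn; plasma glucose and triglyceride quantitated by enzyme method.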

PPARγ-RXRα heterodimer = biological target: T1, PPARγ-RXRα heterodimer (Homo sapiens, UniProt P37231); assay: PPARγ-RXRα heterodimer ligand activity (luciferase reporter, PPARγ:RXRα:4ERPP/CHO-K1 cells); format: cell-based; conditions: concentration showing 50% of the maximum luciferase induction rate; CHO-K1 reporter cells, one day incubation
T1 construct: expressed in transfected cells; host or cells: CHO-K1 (PPARγ:RXRα:4ERPP/CHO-K1)
T1 sequence (P37231 1-477 isoform P37231-2): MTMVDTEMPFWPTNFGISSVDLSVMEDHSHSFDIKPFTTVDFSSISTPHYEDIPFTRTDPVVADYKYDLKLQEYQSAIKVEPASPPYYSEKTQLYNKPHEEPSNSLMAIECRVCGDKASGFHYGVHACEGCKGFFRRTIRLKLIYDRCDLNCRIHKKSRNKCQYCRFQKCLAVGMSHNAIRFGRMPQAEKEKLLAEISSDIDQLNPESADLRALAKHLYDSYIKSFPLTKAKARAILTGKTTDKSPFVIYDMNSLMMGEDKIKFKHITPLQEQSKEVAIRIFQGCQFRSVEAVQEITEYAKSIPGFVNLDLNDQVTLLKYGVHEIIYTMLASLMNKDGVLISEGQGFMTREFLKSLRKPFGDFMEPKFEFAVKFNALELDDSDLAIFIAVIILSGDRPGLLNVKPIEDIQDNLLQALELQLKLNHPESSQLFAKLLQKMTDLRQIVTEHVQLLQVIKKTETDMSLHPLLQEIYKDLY
T1 sequence (P19793 1-462 partner): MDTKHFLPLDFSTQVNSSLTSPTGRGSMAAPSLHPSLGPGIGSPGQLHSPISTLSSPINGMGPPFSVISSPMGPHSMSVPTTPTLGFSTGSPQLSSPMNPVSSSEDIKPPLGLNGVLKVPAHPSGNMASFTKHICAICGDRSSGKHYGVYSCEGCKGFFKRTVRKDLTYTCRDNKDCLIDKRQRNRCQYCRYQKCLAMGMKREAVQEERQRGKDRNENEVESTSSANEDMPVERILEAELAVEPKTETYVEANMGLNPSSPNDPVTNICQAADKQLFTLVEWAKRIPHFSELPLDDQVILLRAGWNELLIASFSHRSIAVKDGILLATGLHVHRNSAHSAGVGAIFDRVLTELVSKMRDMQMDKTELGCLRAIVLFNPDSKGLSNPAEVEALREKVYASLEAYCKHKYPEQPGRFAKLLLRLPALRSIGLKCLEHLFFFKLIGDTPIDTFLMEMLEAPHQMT
Procedure, shortened: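 CHO-K1 cells expressing PPARγ:RXRα with a 4ERPP reporter were exposed to compound for one day at 37° C in Ham F12 containing 0.1% fatty acid-free BSA, then read for luciferase. Induction rate was taken relative to untreated cells as 1, and EC50 is the concentration giving 50% of maximal induction.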

[1] = plasma glucose relative to non-administration group = 100%, read-out: hypoglycemic action (%)
[2] = plasma triglyceride relative to non-administration group = 100%, read-out: hypolipidemic action (%)

Structure (SMILES) | EC50 (PPARγ-RXRα heterodimer) | melting point | response vs control in vivo at 0.01 % (KKAy mice; [1]) | response vs control in vivo at 0.01 % (KKAy mice; [2])
CCCCCS(=O)(=O)NC(=O)/C(=C/c1ccc(OCCOC)cc1Oc1ncc(C(F)(F)F)cc1Cl)CC [Example 183, (2E)-2-[2-{[3-chloro-5-(trifluoromethyl)pyridin-2-yl]oxy}-4-(2-methoxyethoxy)benzylidene]-N-(pentylsulfonyl)butanamide] | 3.8 nM | 104.5 to 105.6 °C | 48% | 44%
CCCCCS(=O)(=O)NC(=O)/C=C/c1ccc(OCCC2OCCO2)cc1Oc1ncc(C(F)(F)F)cc1Cl [Example 196, (2E)-3-[2-{[3-chloro-5-(trifluoromethyl)pyridin-2-yl]oxy}-4-[2-(1,3-dioxolan-2-yl)ethoxy]phenyl)-N-(pentylsulfonyl)acrylamide] | 4.4 nM | 116 to 118 °C | 54% | 79%
CCCCCS(=O)(=O)NC(=O)/C=C/c1ccc(Oc2ncccn2)cc1Oc1ncc(C(F)(F)F)cc1Cl [Example 197, (2E)-3-[2-{[3-chloro-5-(trifluoromethyl)pyridin-2-yl]oxy}-4-(pyrimidin-2-yloxy)phenyl]-N-(pentylsulfonyl)acrylamide] | 28 nM | 80.5 to 82.5 °C | 58% | 87%
CCCCCS(=O)(=O)NC(=O)/C=C/c1ccc(OC(COCC)COCC)cc1Oc1ncc(C(F)(F)F)cc1Cl [Example 198, (2E)-3-{2-{[3-chloro-5-(trifluoromethyl)pyridin-2-yl]oxy}-4-[2-ethoxy-1-(ethoxymethyl)ethoxy]phenyl}-N-(pentylsulfonyl)acrylamide] | 7.8 nM | 83 to 85.5 °C | 62% | 84%
COCCOc1ccc(CCCOC(=O)NS(=O)(=O)NC2CCC(C)CC2)c(Oc2ncc(C(F)(F)F)cc2Cl)c1 (stereo not shown) [Example 205, 3-[2-{[3-chloro-5-(trifluoromethyl)pyridin-2-yl]oxy}-4-(2-methoxyethoxy)phenyl]propyl {[(4-methylcyclohexyl)amino]sulfonyl}carbamate] | 3.1 nM | 121.5 to 121.8 °C | 54% | 50%

Further lines, with some results ahead:

EC50 (PPARγ-RXRα heterodimer) | melting point | Structure (SMILES) | response vs control in vivo at 0.01 % (KKAy mice; [1]) | response vs control in vivo at 0.01 % (KKAy mice; [2])
0.99 nM | 117.5 to 118 °C | COCCOc1ccc(CCCOC(=O)NS(=O)(=O)NCCc2cccs2)c(Oc2ncc(C(F)(F)F)cc2Cl)c1 [Example 207, 3-[2-{[3-chloro-5-(trifluoromethyl)pyridin-2-yl]oxy}-4-(2-methoxyethoxy)phenyl]propyl ({[2-(2-thienyl)ethyl]amino}sulfonyl)carbamate] | 54% | 43%
4 nM | 91 to 93 °C | COCCOc1ccc(CCCOC(=O)NS(=O)(=O)NCCc2ccccn2)c(Oc2ncc(C(F)(F)F)cc2Cl)c1 [Example 208, 3-[2-{[3-chloro-5-(trifluoromethyl)pyridin-2-yl]oxy}-4-(2-methoxyethoxy)phenyl]propyl {[(2-pyridin-2-ylethyl)amino]sulfonyl}carbamate] | 70% | 71%
3.8 nM | 87.5 to 88.4 °C | COCCOc1ccc(CCCOC(=O)NS(=O)(=O)NCCOC(C)C)c(Oc2ncc(Cl)cc2Cl)c1 [Example 429, 3-[2-[(3,5-dichloropyridin-2-yl)oxy]-4-(2-methoxyethoxy)phenyl]propyl {[(2-isopropoxyethyl)amino]sulfonyl}carbamate] | 51% | 60%
0.95 nM | 68 to 69.2 °C | CCOCC(COCC)Oc1ccc(CCCOC(=O)NS(=O)(=O)NCCOC(C)C)c(Oc2ncc(C(F)(F)F)cc2Cl)c1 [Example 430, 3-{2-{[3-chloro-5-(trifluoromethyl)pyridin-2-yl]oxy}-4-[2-ethoxy-1-(ethoxymethyl)ethoxy]phenyl}propyl {[(2-isopropoxyethyl)amino]sulfonyl}carbamate] | 45% | 34%
54 nM | 123 to 124 °C | COCCOc1ccc(/C=C/COC(=O)NS(=O)(=O)N2CCCC2)c(Oc2ncc(C(F)(F)F)cc2Cl)c1 [Example 437, (2E)-3-[2-{[3-chloro-5-(trifluoromethyl)pyridin-2-yl]oxy}-4-(2-methoxyethoxy)phenyl]prop-2-en-1-yl (pyrrolidin-1-ylsulfonyl)carbamate] | 45% | 58%
